Results published in patent US9926294B2, “Pesticidally active heterocyclic derivatives with sulphur containing substituents” (Syngenta Participations AG, priority 2014, dated 2018).

Legend:
Format in all cases: in vivo
[1] = test system: Spodoptera littoralis (Egyptian cotton leaf worm); assay: Example B1: Spodoptera littoralis larvicide, feeding/residual contact, preventive (cotton leaf discs); settings: foliar, 72 h, L1 larvae on sprayed cotton leaf discs, 3 days after treatment, read-out: activity (mortality, repellent effect, feeding behaviour, growth regulation)
Source text: Example B1: Activity Against Spodoptera littoralis (Egyptian Cotton Leaf Worm)
Larvicide, Feeding/Residual Contact Activity, Preventive
Cotton leaf discs were placed on agar in a 24-well microtiter plate and sprayed with test solutions.
After drying, the leaf discs were infested with 5 L1 larvae. The samples were checked for mortality, repellent effect, feeding behaviour, and growth regulation 3 days after treatment (DAT).

[2] = test system: Diabrotica balteata (corn root worm); assay: Example B4: Diabrotica balteata larvae L2 on maize sprouts, feeding/contact, preventative; settings: 120 h, L2 larvae on sprayed maize sprouts, 5 days incubation, read-out: activity (larval mortality, growth regulation)
Description: Example B4: Activity Against Diabrotica Balteata (Corn Root Worm)
(Larvae L2 on Maize Sprouts, Feeding/Contact, Preventative)
Maize sprouts, placed on an agar layer in 24 well micro titer plates were treated with test solutions by spraying. After drying, the MTPs were infested with L2 larvae (6-10 per well). After an incubation period of 5 days, samples were checked for larval mortality and growth regulation.

[3] = test system: Thrips tabaci (onion thrips); assay: Example B8: Thrips tabaci mixed population, feeding/residual contact, preventive; settings: foliar, 168 h, mixed population on sprayed sunflower leaf discs, 7 days incubation, read-out: activity (mortality, special effects)
Description: Example B8: Activity Against Thrips tabaci (Onion Thrips)
(Mixed Population, Feeding/Residual Contact Activity, Preventive)
Sunflower leaf discs were placed on agar in a 24-well microtiter plate and sprayed with test solutions. After drying, the leaf discs were infested with a thrips population of mixed ages. After an incubation period of 7 days, samples were checked for mortality and special effects (e.g. phytotoxicity).

[4] = test system: Plutella xylostella (diamond back moth); assay: Example B3: Plutella xylostella larvicide, feeding/residual contact, preventive (artificial diet); settings: 120 h, L2 larvae on artificial diet, 5 days incubation, read-out: activity (larval mortality, antifeedant, growth regulation)
Description: Example B3: Activity Against Plutella xylostella (Diamond Back Moth)
(Larvicide, Feeding/Residual Contact Activity, Preventive)
24-well microtiter plate (MTP) with artificial diet was treated with test solutions by pipetting. After drying, the MTPs were infested with L2 larvae (10-15 per well). After an incubation period of 5 days, samples were checked for larval mortality, antifeedant and growth regulation.

[5] = test system: Myzus persicae (green peach aphid); assay: Example B7: Myzus persicae systemic/feeding activity, curative, mixed population (pea seedlings); settings: 144 h, roots of infested pea seedlings in test solution, 6 days after introduction, read-out: activity (mortality, special effects on the plant)
Source text: Example B7: Activity Against Myzus persicae (Green Peach Aphid)
(Systemic/Feeding Activity, Curative), Mixed Population
Roots of pea seedlings, infested with an aphid population of mixed ages, were placed directly in the test solutions. 6 days after introduction, samples were checked for mortality and special effects on the plant.

[6] = test system: Bemisia tabaci (cotton white fly); assay: Example B9: Bemisia tabaci adulticide contact activity, preventative; settings: foliar, 168 h, adult white flies on sprayed cotton leaf discs, 7 DAT, read-out: activity (mortality, special effects)
Description: Example B9: Activity Against Bemisia tabaci (Cotton White Fly)
(Adulticide Contact Activity, Preventative), Adult
Cotton leaf discs were placed on agar in a 24-well microtiter plate and sprayed with test solutions. After drying, the leaf discs were infested with adult white flies. After an incubation period of 7 DAT, samples were checked for mortality and special effects (e.g. phytotoxicity).

[7] = test system: Myzus persicae (green peach aphid); assay: Example B5: Myzus persicae feeding/residual contact, preventive, mixed population (sunflower leaf discs); settings: foliar, 144 h, mixed population on sprayed sunflower leaf discs, 6 DAT, read-out: activity (mortality, special effects)
Description: Example B5: Activity Against Myzus persicae (Green Peach Aphid)
(Feeding/Residual Contact Activity, Preventive), Mixed Population
Sunflower leaf discs were placed on agar in a 24-well microtiter plate and sprayed with test solutions. After drying, the leaf discs were infested with an aphid population of mixed ages. After an incubation period of 6 DAT, samples were checked for mortality and special effects (e.g. phytotoxicity).

[8] = test system: Myzus persicae (green peach aphid); assay: Example B6: Myzus persicae feeding activity sachet test, mixed population; settings: 120 h, sachet test in sucrose solution, 5 days after infestation
Source text: Example B6: Activity Against Myzus persicae (Green Peach Aphid)
(Feeding Activity Sachet Test), Mixed Population
Test compounds were applied by pipette into 24 well plates and mixed with Sucrose solution. The plates were closed with a stretched Parafilm. A plastic stencil with 24 holes is placed onto the plate and infested pea seedlings were placed directly on the Parafilm. The infested plate is closed with a gel blotting paper and another plastic stencil and then turned upside down. 5 days after infestation the samples were checked on mortality. Application rate: 12.5 ppm.

[9] = test system: Spodoptera littoralis (Egyptian cotton leaf worm); assay: Example B2: Spodoptera littoralis systemic activity (lettuce on agar); settings: 120 h, systemic via lettuce roots, 5 days after infestation, read-out: activity (mortality, repellent effect, feeding behavior, growth regulation)
Source text: Example B2: Activity Against Spodoptera littoralis (Egyptian Cotton Leaf Worm)
Test compounds were applied by pipette into 24 well plates and mixed with agar. Lettuce seeds were placed on the agar and the multi well plate is closed by another plate which contains also agar. After 7 days the roots have absorbed the compound and the lettuce has grown into the lid plate. The lettuce leaves were now cut off into the lid plate. Spodoptera eggs were pipetted through a plastic stencil on a humid gel blotting paper and the plate closed with it. The samples are checked for mortality, repellent effect, feeding behavior, and growth regulation 5 days after infestation.

For `CCS(=O)(=O)c1cc(C(F)(F)F)cnc1-c1nnc(-c2cc(C(F)(F)F)cc(Cl)n2)n1C` [Compound P63], the mortality at 400 ppm [1] was > 80% and the mortality at 400 ppm [2] was > 80%.
In the case of `Cn1c(-c2cc(C(F)(F)F)ccn2)nnc1-c1ncc(C(F)(F)F)cc1S(=O)(=O)CC1CC1` [Compound P72], the mortality at 400 ppm [3] is reported as > 80% and the mortality at 400 ppm [4] is reported as > 80%.
In the case of `CCS(=O)(=O)c1cc(C(F)(F)F)cnc1-c1nnc(-c2ccnc(C(F)(F)F)c2)n1C` [Compound P8], the mortality at 24 ppm [5] is reported as ≥ 80%, the mortality at 400 ppm [6] is reported as > 80% and the mortality at 400 ppm [7] is reported as > 80%.
For `CCS(=O)(=O)c1cc(C(F)(F)F)cnc1-c1nnc(-c2cccc(C(F)(F)Cl)c2)n1C` [Compound P24], the mortality at 400 ppm [1] was > 80%, the mortality at 400 ppm [4] was > 80% and the mortality at 12.5 ppm [8] was ≥ 80%. For the same compound, the mortality at 400 ppm [2] was > 80% and the mortality at 400 ppm [7] was > 80%.
In the case of `CCSc1cc(C(F)(F)F)cnc1-c1nnc(-c2cccc(C(F)(F)F)n2)n1C` [Compound P49], the mortality at 400 ppm [6] is reported as > 80%.
`Cn1c(-c2cc(C(F)(F)F)ccn2)nnc1-c1ncc(C(F)(F)F)cc1S(C)(=O)=O` [Compound P71] was tested, and the mortality at 24 ppm [5] was ≥ 80%, the mortality at 400 ppm [1] was > 80% and the mortality at 400 ppm [4] was > 80%. For the same compound, the mortality at 400 ppm [2] was > 80% and the mortality at 400 ppm [7] was > 80%.
With `CCSc1cc(C(F)(F)F)cnc1-c1nnc(-c2cc(C(F)(F)F)ccn2)n1CC` [Compound P64] the mortality at 400 ppm [1] was > 80% and the mortality at 400 ppm [2] was > 80%.
`CCS(=O)(=O)c1cc(C(F)(F)F)cnc1-c1nnc(-c2ccc(C(F)F)cc2)n1C` [Compound P53] was tested, and the mortality at 400 ppm [7] was > 80%.
`CCS(=O)(=O)c1cc(C(F)(F)F)cnc1-c1nnc(-c2cccc(C#N)c2)n1C` [Compound P34] was tested, and the mortality at 24 ppm [5] was ≥ 80% and the mortality at 400 ppm [7] was > 80%.
In the case of `CCS(=O)(=O)c1cc(OC(F)F)cnc1-c1nnc(-c2cc(C(F)(F)F)ccn2)n1C` [Compound P66], the mortality at 24 ppm [5] is reported as ≥ 80%, the mortality at 400 ppm [1] is reported as > 80% and the mortality at 400 ppm [4] is reported as > 80%. For the same compound, the mortality at 400 ppm [2] was > 80%, the mortality at 12.5 ppm [9] was ≥ 80% and the mortality at 400 ppm [7] was > 80%.
With `CCS(=O)(=O)c1cc(C(F)(F)F)cnc1-c1nnc(-c2cc(C(F)(F)F)cc(C(F)(F)F)c2)n1C` [Compound P12] the mortality at 400 ppm [1] was > 80% and the mortality at 400 ppm [4] was > 80%.
In the case of `CCS(=O)(=O)c1cc(C(F)(F)F)cnc1-c1nnc(-c2ccc(C(F)(C(F)(F)F)C(F)(F)F)cc2)n1C` [Compound P21], the mortality at 400 ppm [1] is reported as > 80% and the mortality at 400 ppm [2] is reported as > 80%.
In the case of `CCS(=O)(=O)c1cc(C(F)(F)F)cnc1-c1nnc(-c2cccc3c2OC(F)(F)O3)n1C` [Compound P30], the mortality at 12.5 ppm [8] is reported as ≥ 80% and the mortality at 400 ppm [7] is reported as > 80%.
For `CCS(=O)(=O)c1cc(C(F)(F)F)cnc1-c1nnc(-c2ccc(OC(F)(F)F)cc2)n1C` [Compound P33], the mortality at 400 ppm [1] was > 80%, the mortality at 400 ppm [4] was > 80% and the mortality at 12.5 ppm [8] was ≥ 80%. The mortality at 12.5 ppm [9] was ≥ 80% and the mortality at 400 ppm [7] was > 80%.
`CCSc1cc(C(F)(F)F)ccc1-c1nnc(-c2ccc(C(F)(F)F)nc2)n1C` [Compound P54] was tested, and the mortality at 400 ppm [2] was > 80%.
In the case of `CSc1cc(C(F)(F)F)cnc1-c1nnc(-c2cc(C(F)(F)F)ccn2)n1C` [Compound P70], the mortality at 400 ppm [2] is reported as > 80%.
With `CCS(=O)(=O)c1cc(C(F)(F)F)cnc1-c1nnc(-c2cccc(OC(F)(F)F)c2)n1C` [Compound P20] the mortality at 400 ppm [1] was > 80%, the mortality at 12.5 ppm [8] was ≥ 80% and the mortality at 400 ppm [2] was > 80%. For the same compound, the mortality at 400 ppm [7] was > 80%.
With `CCS(=O)(=O)c1cc(OC(F)F)cnc1-c1nnc(-c2ccc(C(F)(F)F)nc2)n1C` [Compound P58] the mortality at 24 ppm [5] was ≥ 80%, the mortality at 400 ppm [6] was > 80% and the mortality at 400 ppm [7] was > 80%.
`CCS(=O)(=O)c1cc(C(F)(F)F)cnc1-c1nnc(-c2ccc(F)c(Cl)c2)n1C` [Compound P15] was tested, and the mortality at 400 ppm [1] was > 80%, the mortality at 12.5 ppm [8] was ≥ 80% and the mortality at 400 ppm [2] was > 80%. The mortality at 400 ppm [7] was > 80%.
`CCS(=O)(=O)c1cc(C(F)(F)F)cnc1-c1nnc(-c2ccc3c(c2)OC(F)(F)O3)n1C` [Compound P56] was tested, and the mortality at 400 ppm [1] was > 80% and the mortality at 400 ppm [2] was > 80%.
In the case of `CCS(=O)(=O)c1cc(C(F)(F)F)cnc1-c1nnc(-c2ccc(C(F)(F)F)cn2)n1C` [Compound P10], the mortality at 400 ppm [1] is reported as > 80% and the mortality at 400 ppm [2] is reported as > 80%.
In the case of `CCS(=O)(=O)c1cc(C(F)(F)F)ccc1-c1nnc(-c2ccc(C(F)(F)F)nc2)n1C` [Compound P55], the mortality at 24 ppm [5] is reported as ≥ 80%, the mortality at 400 ppm [2] is reported as > 80% and the mortality at 400 ppm [7] is reported as > 80%.
In the case of `CCS(=O)(=O)c1cc(C(F)(F)F)cnc1-c1nnc(-c2ccc(C(F)(F)F)c(C(F)(F)F)c2)n1C` [Compound P61, 2-[5-[3,4-bis(trifluoromethyl)phenyl]-4-methyl-1,2,4-triazol-3-yl]-3-ethylsulfonyl-5-(trifluoromethyl)pyridine], the mortality at 400 ppm [1] is reported as > 80%, the mortality at 400 ppm [4] is reported as > 80% and the mortality at 400 ppm [2] is reported as > 80%. The mortality at 400 ppm [6] was > 80% and the mortality at 400 ppm [7] was > 80%.
For `CCS(=O)(=O)c1cc(C(F)(F)F)cnc1-c1nnc(-c2ccc(C(F)(F)F)cc2)n1C` [Compound P5], the mortality at 400 ppm [1] was > 80%, the mortality at 400 ppm [4] was > 80% and the mortality at 400 ppm [2] was > 80%. The mortality at 12.5 ppm [9] was ≥ 80%.
In the case of `Cn1c(-c2cc(C(F)(F)F)ccn2)nnc1-c1ncc(C(F)(F)F)cc1SCC1CC1` [Compound P76], the mortality at 400 ppm [3] is reported as > 80%, the mortality at 400 ppm [4] is reported as > 80% and the mortality at 400 ppm [2] is reported as > 80%.
In the case of `CCS(=O)(=O)c1cc(C(F)(F)F)cnc1-c1nnc(-c2ccc(Cl)c(F)c2)n1C` [Compound P22], the mortality at 400 ppm [1] is reported as > 80%, the mortality at 12.5 ppm [8] is reported as ≥ 80% and the mortality at 400 ppm [2] is reported as > 80%. For the same compound, the mortality at 400 ppm [7] was > 80%.
In the case of `CCS(=O)(=O)c1cc(C(F)(F)F)cnc1-c1nnc(-c2cc(C(F)(F)F)ccc2F)n1C` [Compound P19], the mortality at 400 ppm [7] is reported as > 80%.
`CCS(=O)(=O)c1cc(C(F)(F)F)cnc1-c1nnc(-c2cccc(C(F)(F)F)c2)n1C` [Compound P7] was tested, and the mortality at 24 ppm [5] was ≥ 80%, the mortality at 400 ppm [1] was > 80% and the mortality at 400 ppm [4] was > 80%. For the same compound, the mortality at 12.5 ppm [8] was ≥ 80%, the mortality at 400 ppm [2] was > 80% and the mortality at 400 ppm [6] was > 80%. For the same compound, the mortality at 12.5 ppm [9] was ≥ 80% and the mortality at 400 ppm [7] was > 80%.
For `CCS(=O)(=O)c1cc(C(F)(F)F)cnc1-c1nnc(-c2ccc(C#N)cc2)n1C` [Compound P35], the mortality at 24 ppm [5] was ≥ 80% and the mortality at 400 ppm [2] was > 80%.
With `CCS(=O)(=O)c1cc(C(F)(F)F)cnc1-c1nnc(-c2cc(Cl)cc(Cl)c2)n1C` [Compound P16] the mortality at 400 ppm [1] was > 80%, the mortality at 400 ppm [2] was > 80% and the mortality at 400 ppm [7] was > 80%.
For `CCS(=O)(=O)c1cc(C(F)(F)F)cnc1-c1nnc(-c2ccc(Cl)c(Cl)c2)n1C` [Compound P46], the mortality at 400 ppm [1] was > 80%, the mortality at 400 ppm [2] was > 80% and the mortality at 400 ppm [7] was > 80%.
